This note sets out measurements from US11179397B2, “Imidazopyrimidine derivatives” (Gilead Sciences, Inc., priority 2018, dated 2021).

In assay [1] the target is SHP-2 full length protein (Homo sapiens (Human), UniProt Q06124). Nature of the assay: SHP-2 biochemical DiFMUP pseudosubstrate-fluorogenic assay. Particulars: 0.2 nM SHP-2, 1 μM IRS-1 activator peptide, 50 μM DiFMUP; read-out: SHP2 IC50. In outline: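 In-house recombinant full-length SHP-2 preincubated 90 min at room temperature with compounds (1:3 series, 10,000–0.005 nM), then DiFMUP substrate added at 50 μM final for 30 min more. Fluorescence normalised to DMSO wells (100%) and IC50 derived by curve fitting.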
Chain of SHP-2 full length protein (Q06124 whole entry): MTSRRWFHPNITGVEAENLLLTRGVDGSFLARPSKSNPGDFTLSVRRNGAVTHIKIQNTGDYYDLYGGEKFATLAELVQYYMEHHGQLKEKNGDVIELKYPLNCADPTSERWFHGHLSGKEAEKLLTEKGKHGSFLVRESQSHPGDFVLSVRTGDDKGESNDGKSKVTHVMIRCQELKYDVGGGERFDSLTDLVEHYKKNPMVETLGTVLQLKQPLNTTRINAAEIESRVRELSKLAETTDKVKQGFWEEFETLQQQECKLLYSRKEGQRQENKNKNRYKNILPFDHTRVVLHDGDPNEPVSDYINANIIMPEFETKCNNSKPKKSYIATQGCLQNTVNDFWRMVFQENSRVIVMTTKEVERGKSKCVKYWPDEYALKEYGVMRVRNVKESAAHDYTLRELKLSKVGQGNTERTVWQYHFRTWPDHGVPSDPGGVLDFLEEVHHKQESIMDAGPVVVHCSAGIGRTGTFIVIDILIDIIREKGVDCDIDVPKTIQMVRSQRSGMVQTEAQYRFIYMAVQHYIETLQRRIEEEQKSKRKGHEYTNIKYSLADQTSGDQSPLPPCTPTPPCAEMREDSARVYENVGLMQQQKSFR

The subject of assay [2] is NCI-H358 cells. The assay can be described thus: NCI-H358 3D tumor spheroid growth inhibition. The assay is classed as cell-based. As to conditions: Homo sapiens, NCI-H358, 168 h, read-out: H358 EC50. In outline:
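Cells seeded at 1000/well in ultra-low-attachment plates at 37 °C, 5% CO2 to form spheroids, then incubated a further 7 days with compounds. Viability by 3D CellTiter Glo luminescence; % inhibition versus DMSO wells, with normalized cellular IC50 reported as EC50.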

The mark [3] stands for this setting: 3D spheroids, 7 days, 3D CellTiter Glo, cellular IC50 designated EC50.

Where two headings read alike, the source gives them in different places.

As usually defined, the IC50 is the point on the concentration scale where inhibition reaches its midpoint. One may read the EC50 as the concentration at which the effect is half-maximal. With `C[C@@H]1OCC2(CCN(c3ncc(Sc4ccnc5cc(F)ccc45)c4nccn34)CC2)[C@@H]1N` [Example 116, (3S,4S)-8-(8-((7-fluoroquinolin-4-yl)thio)imidazo[1,2-c]pyrimidin-5-yl)-3-methyl-2-oxa-8-azaspiro[4.5]decan-4-amine], in assay [1], the IC50 is 8 nM. In assay [2] (setting [3]), the EC50 turned out to be 72 nM.

Turning to `C[C@@H]1OCC2(CCN(c3ncc(Sc4ncnc5ccccc45)c4nccn34)CC2)[C@@H]1N` [Example 117, (3S,4S)-3-methyl-8-(8-(quinazolin-4-ylthio)imidazo[1,2-c]pyrimidin-5-yl)-2-oxa-8-azaspiro[4.5]decan-4-amine], the concentration for half-maximal inhibition (IC50) in assay [1] was greater than 10000 nM. Besides, the EC50 in assay [2] (setting [3]) is greater than 12500 nM.

Consider `NCC1CCN(c2ncc(Sc3cccc(Cl)c3Cl)c3nccn23)CC1` [Example 119, (1-(8-((2,3-dichlorophenyl)thio)imidazo[1,2-c]pyrimidin-5-yl)piperidin-4-yl)methanamine], for which the IC50 in assay [1] was determined as 73 nM. The concentration giving a half-maximal response (EC50) in assay [2] (setting [3]) came to 2200 nM.

On to `C[C@@H]1OCC2(CCN(c3ncc(Sc4ccc(C(N)=O)c5ccccc45)c4nccn34)CC2)[C@@H]1N` [Example 120, 4-((5-((3S,4S)-4-amino-3-methyl-2-oxa-8-azaspiro[4.5]decan-8-yl)imidazo[1,2-c]pyrimidin-8-yl)thio)-1-naphthamide], for which the IC50 in assay [1] turned out to be 26 nM. Also, the EC50 in assay [2] (setting [3]) came to 500 nM.

With `Nc1nccc(Sc2cnc(N3CCC4(CC3)Cc3ccccc3[C@H]4N)n3ccnc23)c1Cl` [Example 121, (S)-1′-(8-((2-amino-3-chloropyridin-4-yl)thio)imidazo[1,2-c]pyrimidin-5-yl)-1,3-dihydrospiro[indene-2,4′-piperidin]-1 amine], the half-maximal inhibitory concentration (IC50) in assay [1] was 4.8 nM. The concentration for a half-maximal effect (EC50) in assay [2] stood at 4.2 nM.

In the case of `C[C@@H]1OCC2(CCN(c3ncc(Sc4ccnc5c(F)cccc45)c4nccn34)CC2)[C@@H]1N` [Example 122, (3S,4S)-8-(8-((8-fluoroquinolin-4-yl)thio)imidazo[1,2-c]pyrimidin-5-yl)-3-methyl-2-oxa-8-azaspiro[4.5]decan-4-amine], the IC50 in assay [1] worked out at 9.1 nM. Besides, the EC50 in assay [2] (setting [3]) amounted to 70 nM.

`COc1ccc2c(Sc3cnc(N4CCC5(CC4)CO[C@@H](C)[C@H]5N)n4ccnc34)ccnc2c1` [Example 123, (3S,4S)-8-(8-((7-methoxyquinolin-4-yl)thio)imidazo[1,2-c]pyrimidin-5-yl)-3-methyl-2-oxa-8-azaspiro[4.5]decan-4-amine]: the IC50 in assay [1] was 6.8 nM. In assay [2] (setting [3]), the half-maximal effective concentration (EC50) worked out at 95 nM.

In the case of `NC1Cc2ccccc2C12CCN(c1ncc(Sc3cccc(Cl)c3Cl)c3nccn13)CC2` (stereo not drawn) [Example 124, 1′-(8-((2,3-dichlorophenyl)thio)imidazo[1,2-c]pyrimidin-5-yl)-2,3-dihydrospiro[indene-1,4′-piperidin]-2-amine], the 50% inhibitory concentration (IC50) in assay [1] was 23 nM. Also, in assay [2] (setting [3]), the EC50 was determined as 750 nM.

Turning to `C[C@@H]1OCC2(CCN(c3ncc(Sc4ccnc5cnccc45)c4nccn34)CC2)[C@@H]1N` [Example 126, (3S,4S)-8-(8-((1,7-naphthyridin-4-yl)thio)imidazo[1,2-c]pyrimidin-5-yl)-3-methyl-2-oxa-8-azaspiro[4.5]decan-4-amine], the half-inhibitory concentration (IC50) in assay [1] amounted to 15 nM. Further, the concentration giving a half-maximal response (EC50) in assay [2] (setting [3]) was 120 nM.

Turning to `C[C@@H]1OCC2(CCN(c3ncc(Sc4ccnc5ccc(C#N)cc45)c4nccn34)CC2)[C@@H]1N` [Example 127, 4-((5-((3S,4S)-4-amino-3-methyl-2-oxa-8-azaspiro[4.5]decan-8-yl)imidazo[1,2-c]pyrimidin-8-yl)thio)quinoline-6-carbonitrile], in assay [1], the concentration for half-maximal inhibition (IC50) stood at 30 nM. Besides, in assay [2] (setting [3]), the EC50 was 270 nM.

`C[C@@H]1OCC2(CCN(c3ncc(Sc4ccnc5cccnc45)c4nccn34)CC2)[C@@H]1N` [Example 128, (3S,4S)-8-(8-((1,5-naphthyridin-4-yl)thio)imidazo[1,2-c]pyrimidin-5-yl)-3-methyl-2-oxa-8-azaspiro[4.5]decan-4-amine]: the 50% inhibitory concentration (IC50) in assay [1] turned out to be 14 nM. Moreover, in assay [2] (setting [3]), the concentration giving a half-maximal response (EC50) came out at 59 nM.

Consider `C[C@@H]1OCC2(CCN(c3ncc(Sc4cccc5ncccc45)c4nccn34)CC2)[C@@H]1N` [Example 129, (3S,4S)-3-methyl-8-(8-(quinolin-5-ylthio)imidazo[1,2-c]pyrimidin-5-yl)-2-oxa-8-azaspiro[4.5]decan-4-amine], for which the IC50 in assay [1] worked out at 10 nM. Also, the EC50 in assay [2] (setting [3]) is 150 nM.

For the molecule `C[C@@H]1OCC2(CCN(c3ncc(Sc4ccnc5[nH]ccc45)c4nccn34)CC2)[C@@H]1N` [Example 130, (3S,4S)-8-(8-((1H-pyrrolo[2,3-b]pyridin-4-yl)thio)imidazo[1,2-c]pyrimidin-5-yl)-3-methyl-2-oxa-8-azaspiro[4.5]decan-4-amine], in assay [1], the IC50 amounted to 5.7 nM. Besides, in assay [2] (setting [3]), the 50% effective concentration (EC50) stood at 57 nM.

Take `C[C@@H]1OCC2(CCN(c3ncc(Sc4ccnc5[nH]cnc45)c4nccn34)CC2)[C@@H]1N` [Example 131, (3S,4S)-8-(8-((3H-imidazo[4,5-b]pyridin-7-yl)thio)imidazo[1,2-c]pyrimidin-5-yl)-3-methyl-2-oxa-8-azaspiro[4.5]decan-4-amine]: in assay [1], the 50% inhibitory concentration (IC50) stood at 27 nM. In assay [2] (setting [3]), the EC50 amounted to 2100 nM.

On to `COc1ccc2nccc(Sc3cnc(N4CCC5(CC4)CO[C@@H](C)[C@H]5N)n4ccnc34)c2c1` [Example 132, (3S,4S)-8-(8-((6-methoxyquinolin-4-yl)thio)imidazo[1,2-c]pyrimidin-5-yl)-3-methyl-2-oxa-8-azaspiro[4.5]decan-4-amine], for which the IC50 in assay [1] came out at 22 nM. In assay [2] (setting [3]), the concentration giving a half-maximal response (EC50) was found to be 290 nM.

In the case of `Cc1nc(N2CCC3(CC2)Cc2ccccc2[C@H]3N)n2ccnc2c1-c1cccc(Cl)c1Cl` [Example 135, (S)-1′-(8-(2,3-dichlorophenyl)-7-methylimidazo[1,2-c]pyrimidin-5-yl)-1,3-dihydrospiro[indene-2,4′-piperidin]-1-amine], the IC50 in assay [1] stood at 5.4 nM. For the same molecule, the EC50 in assay [2] (setting [3]) was determined as 14 nM.

For the molecule `C[C@@H]1OCC2(CCN(c3ncc(Sc4cccc5ccccc45)c4nccn34)CC2)[C@@H]1N` [Example 136, (3S,4S)-3-methyl-8-(8-(naphthalen-1-ylthio)imidazo[1,2-c]pyrimidin-5-yl)-2-oxa-8-azaspiro[4.5]decan-4-amine], the concentration for half-maximal inhibition (IC50) in assay [1] came to 4.3 nM. For the same molecule, the half-maximal effective concentration (EC50) in assay [2] (setting [3]) was found to be 130 nM.

Regarding `N[C@@H]1c2ccccc2CC12CCN(c1ncc(Sc3ccnc4sccc34)c3nccn13)CC2` [Example 138, (S)-1′-(8-(thieno[2,3-b]pyridin-4-ylthio)imidazo[1,2-c]pyrimidin-5-yl)-1,3-dihydrospiro[indene-2,4′-piperidin]-1-amine], in assay [1], the IC50 stood at 2.2 nM. Also, in assay [2] (setting [3]), the concentration for a half-maximal effect (EC50) stood at 11 nM.

For `N[C@@H]1c2ccccc2CC12CCN(c1ncc(Sc3ccnc4ccsc34)c3nccn13)CC2` [Example 139, (S)-1′-(8-(thieno[3,2-b]pyridin-7-ylthio)imidazo[1,2-c]pyrimidin-5-yl)-1,3-dihydrospiro[indene-2,4′-piperidin]-1-amine], in assay [1], the concentration for half-maximal inhibition (IC50) was found to be 1.7 nM. For the same molecule, in assay [2] (setting [3]), the EC50 turned out to be 8.9 nM.

For `N[C@@H]1c2ccccc2CC12CCN(c1ncc(Sc3cccc4cnsc34)c3nccn13)CC2` [Example 140, (S)-1′-(8-(benzo[d]isothiazol-7-ylthio)imidazo[1,2-c]pyrimidin-5-yl)-1,3-dihydrospiro[indene-2,4′-piperidin]-1-amine], the IC50 in assay [1] turned out to be 2.6 nM. The 50% effective concentration (EC50) in assay [2] (setting [3]) amounted to 18 nM.

`CSc1ccccc1Sc1cnc(N2CCC3(CC2)Cc2ccccc2[C@H]3N)n2ccnc12` [Example 141, (S)-1′-(8-((2-(methylthio)phenyl)thio)imidazo[1,2-c]pyrimidin-5-yl)-1,3-dihydrospiro[indene-2,4′-piperidin]-1-amine]: in assay [1], the IC50 turned out to be 1.8 nM. Besides, in assay [2] (setting [3]), the half-maximal effective concentration (EC50) was determined as 30 nM.

On to `CCSc1ccccc1Sc1cnc(N2CCC3(CC2)Cc2ccccc2[C@H]3N)n2ccnc12` [Example 142, (S)-1′-(8-((2-(ethylthio)phenyl)thio)imidazo[1,2-c]pyrimidin-5-yl)-1,3-dihydrospiro[indene-2,4′-piperidin]-1-amine], for which, in assay [1], the IC50 was 4 nM. Also, in assay [2] (setting [3]), the EC50 came out at 60 nM.

Regarding `CC(C)Sc1ccccc1Sc1cnc(N2CCC3(CC2)Cc2ccccc2[C@H]3N)n2ccnc12` [Example 143, (S)-1′-(8-((2-(isopropylthio)phenyl)thio)imidazo[1,2-c]pyrimidin-5-yl)-1,3-dihydrospiro[indene-2,4′-piperidin]-1-amine], in assay [1], the IC50 amounted to 11 nM. In assay [2] (setting [3]), the EC50 stood at 260 nM.

Regarding `N[C@@H]1c2ccccc2CC12CCN(c1ncc(Sc3ccnc4cccnc34)c3nccn13)CC2` [Example 144, (S)-1′-(8-((1,5-naphthyridin-4-yl)thio)imidazo[1,2-c]pyrimidin-5-yl)-1,3-dihydrospiro[indene-2,4′-piperidin]-1-amine], the IC50 in assay [1] worked out at 3.6 nM. In assay [2] (setting [3]), the EC50 came out at 4.4 nM.

In the case of `N[C@@H]1c2ccccc2CC12CCN(c1ncc(Sc3ccnc4ccccc34)c3nccn13)CC2` [Example 145], the half-maximal inhibitory concentration (IC50) in assay [1] came out at 2.8 nM. The concentration giving a half-maximal response (EC50) in assay [2] (setting [3]) came out at 20 nM.

With `N[C@@H]1c2cccnc2CC12CCN(c1ncc(Sc3cccc(Cl)c3Cl)c3nccn13)CC2` [Example 146, (S)-1′-(8-((2,3-dichlorophenyl)thio)imidazo[1,2-c]pyrimidin-5-yl)-5,7-dihydrospiro[cyclopenta[b]pyridine-6,4′-piperidin]-5-amine], in assay [1], the IC50 was found to be 1.7 nM. In addition, the EC50 in assay [2] (setting [3]) turned out to be 15 nM.

For `Nc1nccc(Sc2cnc(N3CCC4(CC3)Cc3ncccc3[C@H]4N)n3ccnc23)c1Cl` [Example 147, (S)-1′-(8-((2-amino-3-chloropyridin-4-yl)thio)imidazo[1,2-c]pyrimidin-5-yl)-5,7-dihydrospiro[cyclopenta[b]pyridine-6,4′-piperidin]-5-amine], the IC50 in assay [1] is 4.8 nM. Besides, the EC50 in assay [2] (setting [3]) is 5.5 nM.
